In this assay the test system is facial skin. The assay can be described thus: Sensory test of cooling sensation, alcohol-free face lotion, 19 trained panelists. The class given is in vivo, human. As to conditions: 0.3% in alcohol-free face lotion. The method, then:
A sensory test was carried out with a group of 19 trained panelists in order to evaluate the performance of the coolant composition according to the present invention of Example 2 consisting of 15% l-menthyl l-lactate, 57.6% racemic neomenthol, 21.8% racemic menthol, 4.8% racemic neoisomenthol and 0.8% racemic isomenthol) for topical applications.
The cooling sensation of the coolant composition of Example 2 was tested in direct comparison to l-menthyl l-lactate. The mixture according to Example 2 and l-menthyl l-lactate were separately incorporated into samples of an alcohol-free face lotion at a level of 0.3%, based on the total weight of the face lotion.
The presented data are average values. The overall cooling sensation was rated on a scale of 1 to 5 (1=very weak; 5=very strong).

As for `CC(C)[C@@H]1CC[C@@H](C)C[C@H]1OC(=O)[C@H](C)O` [I-menthyl I-lactate, l-menthyl l-lactate], where the note is “average”, the “How long does the cooling sensation last ?” value was “about 9 minutes” and the “When does the cooling sensation become noticeable?” value was “after 1 minute”. Further, the “Overall cooling sensation (facial skin)” value (average, scale of 1 to 5 (1=very weak; 5=very strong)) amounted to 2.4. The “Was the cooling sensation pleasant ? yes” value (share of panelists answering yes) is listed as “yes: 73.7%”.

For the origin of these results see patent US20080085247A1, “Composition of Menthyl Lactate and a Mixture of Menthol Isomers” (SYMRISE GMBH & CO. KG, priority 2004, published 2008).
